Assay results as given in paper PMC11640973, “The Detection of Toxic Amyloid-β Fibril Fragments Through a Surface Plasmon Resonance Immunoassay” (International Journal of Molecular Sciences, 2024).

How the values were obtained:
[1] = SPR-based approach; ref [21]; cited from earlier work
Source text: In order to reliably detect transient oligomeric species in a mixture of aggregated species without sample manipulation, an immunoassay based on surface plasmon resonance (SPR) has been proposed. This method exploits the properties of an anti-Aβ antibody (4G8) for a direct and simultaneous determination of monomers and biologically relevant (i.e., toxic) transient oligomeric species, also distinguishing the latter from large fibrils. SPR is a highly quantitative technique for measuring binding kinetics and determining monomer concentrations. However, in the context of aggregation assays ...

anti-Aβ antibody 4G8 = experiment: SPR immunoassay of Aβ42 binding to immobilized anti-Aβ antibody 4G8
Source text: This binding profile resembles closely that described previously for a solution containing monomers only. […]
For the present work, we used both the ProteOn™ XPR36 Protein Interaction Array system (Bio-Rad Laboratories, Hercules, CA, USA) and the Sierra SPR®-32 Pro (Bruker, Billerica, MA, USA). The ProteOn™ XPR36 allows for the preparation of six parallel lanes, each representing a different surface on a single chip, with, for instance, five lanes used for ligand (target) immobilization and one designated as a reference. By rotating the chip, each ligand surface can interact with up to six analytes, enabling the simultaneous analysis of up to 36 unique interactions in a single run. The Sierra SPR®-32 Pro is configured with 8 separate channels, each containing four detection spots, one of which serves as a reference spot, enabling analysis with up to 8 samples per run.
The anti-Aβ antibody 4G8 (Signet Laboratories, Emeryville, CA, USA) was immobilized on a CMD50L sensor chip (XanTec bioanalytics, Düsseldorf, Germany) using standard amine coupling chemistry, following standard protocols. A solution of 30 µg/mL 4G8 antibody in 20 mM acetate buffer pH 5.0 was injected for immobilization.
To monitor the aggregation of Aβ42 over time, we followed the general protocol described above. Briefly, Aβ42 was prepared at a final concentration of 50 µM in PBS and incubated at 37 °C. Samples were collected at various time points (0, 6, and 120 h) to capture distinct aggregated forms corresponding to monomers, oligomers/small fibrils, and fibrils. […] The signal from the 4G8-immobilized surface was corrected by subtracting the nonspecific response observed on the empty parallel reference surface.

SHSY-5Y cells = experiment: MTT toxicity assay on SHSY-5Y cells; format: cell-based; settings: 24 h; for cell viability (of control): 10 nM, 95%CI fibrils 67.3–76.0%, fragmented 39.6–48.0%; for cell viability (of control) / cell viability (of controls): Bachem Aβ42, fibrils from 48 h at 37 °C, three sessions each in triplicate; for cell viability (of controls): 30 nM, 95%CI fibrils 52.1–57.3, fragmented 39.7–45.71%; for cell viability versus vehicle control cells: 10 to 100 nM, fibrils ± sonication, p < 0.01, one-way ANOVA; for toxic effect (cell viability): Bachem Aβ42, 10 to 100 nM
Description: SHSY-5Y cell survival was assessed using the MTT colorimetric assay after exposure to Aβ species—including monomers (t = 0), fibrils, and sonicated fibrils (48 h)—prepared and incubated at a concentration of 100 µM for aggregation. As described in the sample preparation chapter, cells were exposed to these Aβ species at final concentrations of 10, 30, and 100 nM for 24 h. Following exposure, cells were incubated with a culture medium (100 µL/well) containing a 1:10 dilution of Thiazolyl blue tetrazolium bromide (MTT; 4 mg dissolved in 1 mL DPBS). The plates were then placed in the incubator for 3 h. At the end of the incubation, the medium containing MTT was replaced with HCl-Isopropanol (1N HCl diluted 1:25 in 100% isopropanol). The absorbance of the colored solution was measured at 540 nm using a microplate spectrophotometer (F500 Infinity, Tecan, Männedorf, Switzerland).
Statistical calculations were performed using GraphPad Prism (version 9.4; GraphPad Software, Bethesda, MD, USA). Paired t-tests were used to analyze differences between experimental conditions (e.g., Figure 3), while one-way ANOVA followed by Tukey’s post hoc test was applied for multiple group comparisons (e.g., Figure 4). The data are presented as mean ± standard deviation (SD). The statistical significance was defined as p < 0.05.

[2] = Aβ42 compared to Aβ40; ref [35]; cited from earlier work
Description: The lyophilized powder obtained from the synthesis and purification was suspended in 0.02% Trifluoracetic acid (TFA). The final pH of the solution was 2.8, ensuring the stability of the depsi bond and preventing premature conversion to the native peptide. The concentration was measured using UV ...

[3] = stock solution in 50 mM NaOH (1 mg/mL), −80 °C; ref [38]; cited from earlier work
Description: To further validate our results, we used native forms of Aβ42. Lyophilized recombinant Aβ42 (rPepride) and the synthetic Aβ42 (Bachem) were suspended in a 50 mM NaOH solution (1 mg/mL) following the protocol of Taylor et al., which provides a simple and reliable method for the high-yield preparation of seedless Aβ monomers. […] This validated approach reduces handling variability and ensures reproducibility in experiments.

[4] = freshly prepared Aβ42 (t = 0), 5 µM
[5] = freshly prepared Aβ42 (t = 0), 5 µM in PBST (0.005% Tween), flowed over immobilized 4G8
[6] = incubated 5 days, then one freeze–thaw cycle

O=C(O[C@@H]1Cc2c(O)cc(O)cc2O[C@@H]1c1cc(O)c(O)c(O)c1)c1cc(O)c(O)c(O)c1 [epigallocatechin gallate]
effect on formation of Aβ42 oligomers [1]: inhibited

fibrillar macroaggregates: Aβ42 incubated 5 days, larger suprafibrillar macroaggregates
recognition of fibrillar macroaggregates by SPR (anti-Aβ antibody 4G8; incubated 5 days at 37 °C): not recognized by SPR

sonicated fibrils: Aβ42 fibrils produced by tip sonication (1 min 10% power 30% cycles)
cell viability (of control) (SHSY-5Y cells; MTT): 43.8%
cell viability (of controls) (SHSY-5Y cells; MTT): 42.7%
cell viability versus vehicle control cells (SHSY-5Y cells): significantly different from the viability of control cells
fibril toxicity, change by fragmentation (SHSY-5Y cells; sonicated versus unfragmented fibrils, 10 and 30 nM, MTT): significantly increased by fragmentation

fibrils: Aβ42 purchased from Bachem, fibrils obtained after 48 h incubation at 37 °C
cell viability (of control) (SHSY-5Y cells; MTT): 71.6%
cell viability (of controls) (SHSY-5Y cells; MTT): 54.73%
cell viability versus vehicle control cells (SHSY-5Y cells): significantly different from the viability of control cells
toxic effect (cell viability) (SHSY-5Y cells; MTT): concentration-dependent toxicity

Aβ40: Aβ1–40, fragment of Amyloid Precursor Protein [reference compound]
aggregation propensity [2]: aggregates more slowly

Aβ42 monomer: freshly prepared Aβ42 solution (t = 0), containing monomers only
toxic effect (cell viability) (SHSY-5Y cells; MTT): rule out any toxic effect
KD (calculated from the ratio koff/kon) (anti-Aβ antibody 4G8; Aβ42 monomer binding to immobilized 4G8, t = 0): about 140 nM
time to complete dissociation (anti-Aβ antibody 4G8; [4]): ≤ 15 min
time to saturation of SPR binding signal (anti-Aβ antibody 4G8; [4]): ≈ 1 min
koff (anti-Aβ antibody 4G8; [5]): 0.0044 s⁻¹
kon (anti-Aβ antibody 4G8; [5]): 31000 M⁻¹ s⁻¹

Amyloid-β1–42 [Aβ42]
stability of monomeric state [3]: at least 40 days
aggregation propensity [2]: higher aggregation propensity
dissociation of most of the binding signal (anti-Aβ antibody 4G8; 50 µM in PBS incubated 6 h at 37 °C, diluted to 5 µM, 15 min dissociation phase): very slow dissociation
SPR binding signal on immobilized 4G8 (anti-Aβ antibody 4G8; 50 µM in PBS incubated 6 h at 37 °C, diluted to 5 µM, versus t = 0): marked increase in the SPR binding signal
decrease in the monomer signal (anti-Aβ antibody 4G8; 6 h of aggregation, 50 µM in PBS, 37 °C): 56%
oligomer-dependent SPR signal (slow dissociation) (anti-Aβ antibody 4G8; fragmentation by freeze–thaw or sonication, eight independent experiments, rPeptide, Bachem or depsi-peptide Aβ42, Proteon or Bruker, p = 0.0012 paired t-test): fragmentation-induced increase in SPR-detected Aβ42 oligomers
time to complete dissociation of signal (anti-Aβ antibody 4G8; incubated 5 days at 37 °C (residual monomers)): ≤ 15 min
SPR signal (anti-Aβ antibody 4G8; incubated 5 days at 37 °C, versus 6 h and freshly prepared): much lower SPR signal compared to the solution incubated for 6 h (Figure 2c), and even lower than that of the freshly prepared solution
SPR signals (anti-Aβ antibody 4G8; [6]): marked increase in the SPR signals
absolute amount of monomers (anti-Aβ antibody 4G8; [6]): decreased
